Source: US8541427B2, “Phenyl-substituted 2-imino-3-methyl pyrrolo pyrimidinone compounds as BACE-1 inhibitors, compositions, and their use” (Merck, Sharp & Dohme, Corp., priority 2008, dated 2013)
Like-named read-outs stand apart in the source and are kept apart here.

Experiments:
[1] = target: CYP2D6 (Homo sapiens (Human), UniProt P10635); assay: CYP Inhibition Assay, CYP2D6; format: in vitro ADME; settings: human liver microsomes
[2] = target: CYP3A4 (Homo sapiens (Human), UniProt P08684); assay: CYP Inhibition Assay, CYP3A4; format: in vitro ADME; settings: human liver microsomes;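 also: CYP probe substrate held near its Km, inhibition judged from metabolite formation quantified by LC-MS/MS against a standard curve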
Chain of CYP3A4 (P08684 whole entry): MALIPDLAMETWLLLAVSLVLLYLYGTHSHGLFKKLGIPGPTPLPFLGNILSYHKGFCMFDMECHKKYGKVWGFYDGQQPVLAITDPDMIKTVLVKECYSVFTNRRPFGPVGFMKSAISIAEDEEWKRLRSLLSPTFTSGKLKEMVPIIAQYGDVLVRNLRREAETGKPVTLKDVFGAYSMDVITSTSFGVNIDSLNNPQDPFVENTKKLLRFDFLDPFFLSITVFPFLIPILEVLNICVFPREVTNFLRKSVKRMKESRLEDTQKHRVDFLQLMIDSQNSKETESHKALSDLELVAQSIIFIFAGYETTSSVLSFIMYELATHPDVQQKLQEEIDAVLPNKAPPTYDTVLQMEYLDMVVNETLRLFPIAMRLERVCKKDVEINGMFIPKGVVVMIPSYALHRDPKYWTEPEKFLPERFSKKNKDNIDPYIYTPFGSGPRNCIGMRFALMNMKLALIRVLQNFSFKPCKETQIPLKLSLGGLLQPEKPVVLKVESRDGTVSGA

[3] = target: CYP2C9 (Homo sapiens (Human), UniProt P11712); assay: CYP Inhibition Assay, CYP2C9; format: in vitro ADME; settings: human liver microsomes;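 also: probe substrate held close to its Km, with metabolite formation quantified by LC-MS/MS against a calibration curve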
Chain of CYP2C9 (P11712 whole entry, the tested form may be a part): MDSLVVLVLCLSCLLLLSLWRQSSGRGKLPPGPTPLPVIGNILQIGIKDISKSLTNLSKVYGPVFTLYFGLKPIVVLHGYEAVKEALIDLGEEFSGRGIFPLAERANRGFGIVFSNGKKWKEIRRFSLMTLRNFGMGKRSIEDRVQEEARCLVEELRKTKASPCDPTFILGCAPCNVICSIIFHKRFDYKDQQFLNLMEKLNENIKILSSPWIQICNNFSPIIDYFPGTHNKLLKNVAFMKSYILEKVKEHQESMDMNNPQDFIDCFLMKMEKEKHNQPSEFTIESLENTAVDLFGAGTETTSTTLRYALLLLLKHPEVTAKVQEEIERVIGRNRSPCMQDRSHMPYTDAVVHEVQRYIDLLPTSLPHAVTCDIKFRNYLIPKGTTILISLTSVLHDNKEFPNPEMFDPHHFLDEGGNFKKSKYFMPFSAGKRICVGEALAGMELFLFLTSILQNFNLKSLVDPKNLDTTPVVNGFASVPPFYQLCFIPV

[4] = target: soluble human BACE1 catalytic domain (Homo sapiens (Human), UniProt P56817); assay: BACE1 HTRF FRET Assay; format: biochemical; settings: Ki calculated from IC50 with Cheng-Prusoff equation;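 also: cleavage of a quenched APP Swedish mutant peptide (QSY7 quencher, Europium donor) measured as rise in 620 nm fluorescence after 1.5 h at 30 °C, inhibition suppresses signal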
Chain of soluble human BACE1 catalytic domain (P56817 75-416): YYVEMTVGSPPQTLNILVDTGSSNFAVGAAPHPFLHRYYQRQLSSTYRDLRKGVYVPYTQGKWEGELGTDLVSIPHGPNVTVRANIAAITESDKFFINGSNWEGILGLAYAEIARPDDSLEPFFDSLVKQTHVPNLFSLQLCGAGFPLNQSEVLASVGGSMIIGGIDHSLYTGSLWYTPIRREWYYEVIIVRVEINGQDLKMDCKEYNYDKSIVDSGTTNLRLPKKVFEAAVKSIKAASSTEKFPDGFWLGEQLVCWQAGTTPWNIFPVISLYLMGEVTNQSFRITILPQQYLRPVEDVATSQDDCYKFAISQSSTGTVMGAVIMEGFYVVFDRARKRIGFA

[5] = target: BACE1 (Aβ40 in HEK293-APPswe/lon cells) (Homo sapiens (Human), UniProt P56817); assay: BACE Inhibitor Whole Cell IC50 Determination Using HEK293-APPswe/lon Cells (Aβ40); format: cell-based; settings: 4 hours
Chain of BACE1 (Aβ40 in HEK293-APPswe/lon cells) (P56817 46-501): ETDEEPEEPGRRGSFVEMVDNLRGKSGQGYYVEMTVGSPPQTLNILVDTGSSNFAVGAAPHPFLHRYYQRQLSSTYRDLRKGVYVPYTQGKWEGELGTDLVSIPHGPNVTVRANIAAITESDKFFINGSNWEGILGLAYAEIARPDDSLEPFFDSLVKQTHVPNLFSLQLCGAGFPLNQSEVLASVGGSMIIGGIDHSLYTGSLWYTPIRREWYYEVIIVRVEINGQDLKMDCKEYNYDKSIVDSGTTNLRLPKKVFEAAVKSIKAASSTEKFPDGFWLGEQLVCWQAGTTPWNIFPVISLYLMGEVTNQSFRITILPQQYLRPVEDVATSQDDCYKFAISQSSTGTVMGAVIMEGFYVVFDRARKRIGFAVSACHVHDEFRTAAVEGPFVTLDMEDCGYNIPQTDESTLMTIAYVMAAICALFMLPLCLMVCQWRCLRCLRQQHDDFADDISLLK

[6] = target: human liver Cathepsin D (Homo sapiens (Human), UniProt P07339); assay: Human Cathepsin D FRET Assay; format: biochemical; settings: selectivity with respect to Cathepsin D vs BACE1
Chain of human liver Cathepsin D (P07339 65-412): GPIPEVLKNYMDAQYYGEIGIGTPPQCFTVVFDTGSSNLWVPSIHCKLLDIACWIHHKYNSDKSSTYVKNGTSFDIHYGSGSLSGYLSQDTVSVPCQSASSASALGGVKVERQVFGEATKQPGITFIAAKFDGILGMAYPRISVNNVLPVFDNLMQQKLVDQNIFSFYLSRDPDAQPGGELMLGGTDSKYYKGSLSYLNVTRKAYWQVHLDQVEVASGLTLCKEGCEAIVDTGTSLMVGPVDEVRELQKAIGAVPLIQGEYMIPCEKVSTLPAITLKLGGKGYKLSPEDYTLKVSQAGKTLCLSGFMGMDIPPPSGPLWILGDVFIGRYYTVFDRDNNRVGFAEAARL
Chain of human liver Cathepsin D (P07339 169-412): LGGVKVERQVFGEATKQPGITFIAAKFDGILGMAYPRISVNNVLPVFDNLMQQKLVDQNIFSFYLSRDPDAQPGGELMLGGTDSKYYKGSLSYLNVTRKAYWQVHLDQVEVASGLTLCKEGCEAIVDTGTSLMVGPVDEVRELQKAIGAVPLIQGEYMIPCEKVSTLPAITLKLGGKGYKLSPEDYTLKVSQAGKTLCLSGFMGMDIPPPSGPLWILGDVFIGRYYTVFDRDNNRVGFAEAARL

[7] = target: hERG (Homo sapiens (Human), UniProt Q12809); assay: hERG screening, IonWorks Quattro (hERG L929 cells); format: cell-based; settings: L929 cells expressing hERG; for inhibition at 5 min, 1 uM: read-out: HERG Ionworks % Inhib 1 uM; for inhibition at 5 min, 10 uM: read-out: HERG Ionworks % Inhib 10 uM
Chain of hERG (Q12809 whole entry): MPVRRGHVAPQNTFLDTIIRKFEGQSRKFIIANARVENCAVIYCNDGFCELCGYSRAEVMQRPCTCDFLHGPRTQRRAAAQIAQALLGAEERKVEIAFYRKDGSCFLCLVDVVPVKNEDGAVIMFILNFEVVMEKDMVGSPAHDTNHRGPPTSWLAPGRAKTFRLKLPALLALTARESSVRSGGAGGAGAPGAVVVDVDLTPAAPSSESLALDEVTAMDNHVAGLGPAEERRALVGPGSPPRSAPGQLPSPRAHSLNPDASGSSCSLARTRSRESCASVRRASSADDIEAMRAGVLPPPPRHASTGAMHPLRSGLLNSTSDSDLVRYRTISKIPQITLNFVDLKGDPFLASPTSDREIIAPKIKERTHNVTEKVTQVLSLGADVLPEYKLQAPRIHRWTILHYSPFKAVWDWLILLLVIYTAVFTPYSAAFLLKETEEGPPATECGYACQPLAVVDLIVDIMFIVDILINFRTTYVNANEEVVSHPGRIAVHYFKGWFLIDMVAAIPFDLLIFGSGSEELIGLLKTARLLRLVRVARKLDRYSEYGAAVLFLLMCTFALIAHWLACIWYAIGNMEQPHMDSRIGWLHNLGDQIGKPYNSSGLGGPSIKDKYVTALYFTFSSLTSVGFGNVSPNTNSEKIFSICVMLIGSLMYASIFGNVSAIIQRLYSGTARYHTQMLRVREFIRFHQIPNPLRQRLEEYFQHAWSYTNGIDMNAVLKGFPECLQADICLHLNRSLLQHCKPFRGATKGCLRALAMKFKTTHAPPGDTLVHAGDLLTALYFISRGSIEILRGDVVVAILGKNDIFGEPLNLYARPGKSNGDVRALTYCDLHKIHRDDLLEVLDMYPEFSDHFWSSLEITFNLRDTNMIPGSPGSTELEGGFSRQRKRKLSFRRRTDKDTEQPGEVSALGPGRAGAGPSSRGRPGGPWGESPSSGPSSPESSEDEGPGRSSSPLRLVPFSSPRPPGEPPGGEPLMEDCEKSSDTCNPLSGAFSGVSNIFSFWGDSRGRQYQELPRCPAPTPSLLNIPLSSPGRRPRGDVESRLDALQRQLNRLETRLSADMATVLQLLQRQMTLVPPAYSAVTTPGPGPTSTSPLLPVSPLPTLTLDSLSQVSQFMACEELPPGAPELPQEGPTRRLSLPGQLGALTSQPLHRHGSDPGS

[8] = 30 min pre-incubation with NADPH, read-out: CYP 2D6 IC50 pre
[9] = co-incubation, read-out: CYP 2D6 IC50 co
[10] = 30 min pre-incubation with NADPH, read-out: CYP 3A4 IC50 pre
[11] = co-incubation, read-out: CYP 3A4 IC50 co
[12] = 30 min pre-incubation with NADPH, read-out: CYP 2C9 IC50 pre
[13] = co-incubation, read-out: CYP 2C9 IC50 co

Chain of CYP2D6 (P10635 whole entry): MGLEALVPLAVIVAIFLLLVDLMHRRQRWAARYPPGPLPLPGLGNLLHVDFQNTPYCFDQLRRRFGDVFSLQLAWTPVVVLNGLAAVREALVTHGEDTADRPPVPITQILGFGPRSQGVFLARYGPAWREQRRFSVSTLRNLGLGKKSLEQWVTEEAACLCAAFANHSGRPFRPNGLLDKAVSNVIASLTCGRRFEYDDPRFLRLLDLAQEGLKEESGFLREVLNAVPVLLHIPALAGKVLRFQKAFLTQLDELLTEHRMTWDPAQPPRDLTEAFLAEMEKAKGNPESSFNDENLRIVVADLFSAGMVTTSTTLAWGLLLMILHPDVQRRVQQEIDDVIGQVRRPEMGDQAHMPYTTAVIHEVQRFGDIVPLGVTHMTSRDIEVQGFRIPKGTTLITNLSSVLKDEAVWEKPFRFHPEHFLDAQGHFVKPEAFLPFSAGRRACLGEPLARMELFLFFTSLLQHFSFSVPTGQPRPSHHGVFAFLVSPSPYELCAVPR

| SMILES | IC50 [1, 8] [µM] | IC50 [1, 9] [µM] | IC50 [2, 10] [µM] | IC50 [2, 11] [µM] | IC50 [3, 12] [µM] | IC50 [3, 13] [µM] | Ki [4] [µM] | IC50 [5] [µM] | CathD Selectivity [6] | inhibition at 5 min, 1 uM [7] [%] | inhibition at 5 min, 10 uM [7] [%] |
| --- | --- | --- | --- | --- | --- | --- | --- | --- | --- | --- | --- |
| CCOc1nc(N2C[C@H]3C(=O)N(C)C(N)=N[C@@]3(c3ccccc3)C2)nc(C)c1F (racemic) [4 racemic] | > 30 | ~30 | > 30 | > 30 | > 30 | > 30 |  |  |  |  |  |
| CCc1nc(N2C[C@H]3C(=O)N(C)C(N)=N[C@@]3(c3ccccc3)C2)nc(C)c1F (racemic) [5 racemic] | > 30 | ~30 | > 30 | > 30 | > 30 | > 30 | 0.061 | 0.217 |  |  |  |
| CCc1nc(N2C[C@H]3C(=O)N(C)C(=N)N[C@@]3(c3ccccc3)C2)nc(OC)c1F (racemic) [6 racemic] | ~30 | 24.9 | > 30 | > 30 | > 30 | > 30 | 0.016 | 0.144 | 318 |  |  |
| Cc1nc(N2C[C@H]3C(=O)N(C)C(N)=N[C@@]3(c3ccccc3)C2)nc(C2CC2)c1Cl (racemic) [7 racemic] |  |  |  |  |  |  | 0.094 | 0.664 |  |  |  |
| Cc1nc(N2C[C@H]3C(=O)N(C)C(N)=N[C@@]3(c3ccccc3)C2)nc(C)c1F (racemic) [23 racemic] | > 30 | > 30 | > 30 | > 30 | > 30 | > 30 | 0.154 | 0.292 |  |  |  |
| CCOc1nc(N2C[C@H]3C(=O)N(C)C(=N)N[C@@]3(c3ccccc3)C2)nc(OC)c1F (racemic) [24 racemic] | ~30 | 22.6 | > 30 | > 30 | > 30 | > 30 | 0.137 |  | 129 |  |  |
| Cc1nc(N2C[C@H]3C(=O)N(C)C(N)=N[C@@]3(c3ccccc3)C2)nc(C2CC2)c1F (racemic) [25 racemic] | > 20 | > 20 | > 20 | > 20 | > 20 | > 20 | 0.044 | 0.349 |  |  |  |
| CCc1nc(N2C[C@H]3C(=O)N(C)C(N)=N[C@@]3(c3ccccc3)C2)nc(C2CC2)c1Cl (racemic) [26 racemic] | > 20 | > 20 | > 20 | > 20 | > 20 | > 20 | 0.18 |  |  |  |  |
| COc1nc(N2C[C@H]3C(=O)N(C)C(=N)N[C@@]3(c3ccc(F)c(Cl)c3F)C2)nc(C)c1F (racemic) [39 racemic] | > 20 | > 20 | > 20 | > 20 | > 20 | > 20 | 0.0092 | 0.04 | 221 | 3 | 61 |
| COc1nc(N2C[C@H]3C(=O)N(C)C(=N)N[C@@]3(c3cc(F)ccc3Cl)C2)nc(C)c1F [Example 2] | > 20 | > 20 | > 20 | > 20 | > 20 | > 20 |  |  | 162 | 8 | 50 |
| COc1nc(N2C[C@H]3C(=O)N(C)C(=N)N[C@@]3(c3cc(Cl)ccc3F)C2)nc(C)c1F [Example 3] | > 20 | > 20 | > 20 | > 20 | 12.7 | 8.5 |  |  |  | 22 | 89 |
| COc1nc(N2C[C@H]3C(=O)N(C)C(N)=N[C@@]3(c3cc(F)c(F)cc3F)C2)nc(C)c1F [Example 8] | > 20 | > 20 | > 20 | > 20 | > 20 | > 20 |  |  |  | 21 | 89 |
| COc1nc(N2C[C@H]3C(=O)N(C)C(=N)N[C@@]3(c3cc(F)ccc3F)C2)nc(OC)c1F [Example 9] | > 30 | > 30 | 18.6 | > 30 | ~30 | ~30 | 0.0056 | 0.066 | 386 | 12 | 71 |
| COc1nc(N2C[C@H]3C(=O)N(C)C(=N)N[C@@]3(c3ccc(F)cc3F)C2)nc(OC)c1F [Example 10] | > 30 | ~30 | > 30 | > 30 | > 30 | > 30 | 0.0018 | 0.0075 | 583 | 7 | 74 |
| COc1nc(N2C[C@H]3C(=O)N(C)C(=N)N[C@@]3(c3c(F)cc(F)cc3F)C2)nc(C)c1F [Example 13] | > 20 | > 20 | > 20 | > 20 | > 20 | > 20 | 0.015 | 0.021 | 773 |  |  |
| Cc1nc(N2C[C@H]3C(=O)N(C)C(=N)N[C@@]3(c3cccc(C#N)c3)C2)nc(C2CC2)c1F [Example 14] | > 20 | > 20 | > 20 | > 20 | > 20 | > 20 | 0.043 | 0.213 |  | 6 | 59 |
| COc1nc(N2C[C@H]3C(=O)N(C)C(=N)N[C@@]3(c3ccccc3F)C2)nc(C)c1Cl [Example 18] |  |  |  |  |  |  | 0.0093 | 0.032 | 228 |  |  |
| COc1nc(N2C[C@H]3C(=O)N(C)C(=N)N[C@@]3(c3cccc(Cl)c3)C2)nc(C)c1F [Example 33] |  |  |  |  |  |  | 0.039 | 0.176 | 43 |  |  |
| Cc1nc(N2C[C@H]3C(=O)N(C)C(=N)N[C@@]3(c3cc(F)ccc3F)C2)nc(C2CC2)c1F [Example 37] | > 20 | > 20 | > 20 | > 20 | > 20 | > 20 | 0.026 | 0.235 |  | 12 | 73 |
| COc1nc(N2C[C@H]3C(=O)N(C)C(N)=N[C@@]3(c3c(F)ccc(F)c3F)C2)nc(C)c1F [Example 40] | > 20 | > 20 | > 20 | > 20 | > 20 | > 20 |  |  |  | 15 | 81 |
| COc1nc(N2C[C@H]3C(=O)N(C)C(=N)N[C@@]3(c3ccc(F)cc3F)C2)nc(C(F)(F)F)c1F [Example 41] |  |  |  |  |  |  | 0.032 | 0.067 | 346 | 1 | 77 |
| COc1nc(N2C[C@H]3C(=O)N(C)C(=N)N[C@@]3(c3ccc(F)cc3F)C2)nc(C(C)(F)F)c1F [Example 42] |  |  |  |  |  |  | 0.011 |  |  |  |  |
